One test deals with Cathepsin B (Homo sapiens, UniProt P07858). Nature of the test: Binding affinity to cathepsin B treated up to 2 hrs at 37degC by Dixon plot.
The next test addresses T1, Papain (Carica papaya, UniProt P00784).
T1 sequence (P00784 whole entry): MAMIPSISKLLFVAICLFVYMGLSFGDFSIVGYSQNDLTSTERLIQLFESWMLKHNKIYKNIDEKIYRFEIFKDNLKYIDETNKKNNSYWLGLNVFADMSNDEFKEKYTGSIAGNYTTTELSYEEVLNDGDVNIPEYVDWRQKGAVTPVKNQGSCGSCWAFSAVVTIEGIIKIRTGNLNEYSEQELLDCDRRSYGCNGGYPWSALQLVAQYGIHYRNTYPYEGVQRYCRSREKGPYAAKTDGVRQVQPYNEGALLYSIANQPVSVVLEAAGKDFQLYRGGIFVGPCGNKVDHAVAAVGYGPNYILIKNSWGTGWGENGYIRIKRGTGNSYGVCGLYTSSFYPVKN
Nature of the test: Binding affinity to Carica papaya papain treated up to 2 hrs at 25 degC by Dixon plot.

One may read the Ki as a dissociation constant, usually derived from enzyme kinetics or from competition with a known ligand. A low value points to a stronger hold on the target. For `O=C(N[C@@H](Cc1ccccc1)C(=O)NCC1CO1)OCc1ccccc1` (stereo partly specified), the Ki came out at 1020 µM on Cathepsin B and 390 µM on Papain.

`COC(=O)[C@H](C)NC(=O)[C@H](C)NC(=O)C[C@@H]1O[C@H]1CNC(=O)[C@H](Cc1ccccc1)NC(=O)OCc1ccccc1`: the Ki at Cathepsin B came out at 244 µM; on Papain it was 73 µM.

Turning to `COC(=O)[C@H](C)NC(=O)[C@H](C)NC(=O)C[C@H]1O[C@H]1CNC(=O)[C@H](Cc1ccccc1)NC(=O)OCc1ccccc1`, the Ki on Cathepsin B was found to be 94 µM; at Papain, 18 µM.
